Measurements published in patent US20230295145A1, “PYRROLIDINE DERIVATIVES AND METHODS OF USE” (Genentech, Inc., priority 2020, published 2023).
Where two headings read alike, the source gives them in different places.

Key:
[1] = biological target: T1, VHL (Homo sapiens, UniProt P40337); assay: VHL HEK-293 BRET Assay (VHL NanoBRET Target Engagement Assay); type: cell-based; settings: HEK 293 RT VHL-NanoLuc stable cells; read-out: IC50
T1 construct: expressed in transfected cells
Procedure: The VHL NanoBRET™ Target Engagement Assay analyzes the apparent affinity of test compounds for VHL in cells by competitive displacement of a VHL NanoBRET™ tracer reversibly bound to a NanoLuc® VHL fusion protein stably expressed in the cells.
Test compounds were transferred to the assay plate (384 Well White Non-Binding Corning Assay Plates (Corning-3574)) using an Echo 555 Liquid Handler (Labcyte) in 2.5 nL increments and, as appropriate, intermediate stock concentrations of compounds, in order to prepare a titration series. 50 nL of control compound (10 mM; parental unlabeled VHL antagonist; see structure below) and 50 nL of DMSO (negative control) were dispensed into the appropriate control wells. DMSO was backfilled to a final volume of 50 nL as required. 50 nl per well of 1 mM VHL NanoBRET™ Tracer in DMSO (NanoBRET™ Tracer-PEG2-590 (see structure below)) was transferred into each well using an Echo 555 (ultimately yielding a final concentration of 1 uM). HEK 293 RT VHL-NanoLuc® stable cells were cultured in DMEM High Glucose with Pyruvate, 10% fetal bovine serum, 2 mg/mL of Geneticin Selective Antibiotic (50 mg/mL) and 2 mM HEPES (1 M). Cells were seeded in Opti-MEM (Life Technologies-11058-021), 1.7×10^5 cells/mL, 40 μl per well into the assay plate, centrifuged at 500 rpm for 30 seconds and incubated for 2 hours. Max Signal control wells consisted of DMSO only treated wells. Minimum Signal control wells contained of 10 uM parental unlabeled VHL antagonist (control compound—see structure below). 3× Complete Substrate plus Inhibitor Solution was prepared in Opti-MEM (consists of a 1:166 dilution of NanoBRET™ Nano-Glo® Substrate plus a 1:500 dilution of Extracellular NanoLuc® Inhibitor in Opti-MEM), and 20 ul was dispensed into each well of the 384-well plate and centrifuged at 1000 rpm for 1 minute, then incubated for 2 minutes at room temperature. Background Signal control wells were prepared without tracer for background correction steps.
Plates were read using a PerkinElmer Envision Reader (model 2104-0020) equipped with Luminescence option (Mirror: BRET2 Enh (PE Barcode 659), Emission Filter: Omega 610LP (Barcode 504), 2nd Emission Filter: Umbelliferone 460 (Barcode 207), Measurement height: 6.5 mm, Measurement time: 1 s). The raw BRET ratio values were calculated by dividing the acceptor emission value (610 nm) by the donor emission value (460 nm) for each sample. To correct for background, the BRET ratio in the absence of tracer (average of no-tracer control samples) was subtracted from the BRET ratio of each sample. Raw BRET units were converted to milliBRET units (mBU) by multiplying each raw BRET value by 1,000. The normalized NanoBRET™ signal was calculated relative to the Max Signal control wells (DMSO treated control wells) and the Minimum Signal control wells. Percentage inhibition was calculated relative to the Minimum Signal control and Maximum Signal control wells. IC50 values were derived by four parameter curve fitting using the Robust method.

[2] = biological target: T1, VHL; assay: as above; type: cell-based; settings: IC50 values measured in the presence of digitonin; HEK 293 RT VHL-NanoLuc stable cells; read-out: IC50 + Digi (μM)*
[3] = test system: NCI-H2030; assay: Cell Viability Assay (CellTiter-Glo); type: cell-based; settings: 5 days
Procedure: (§1) Cell lines were cultured in RPMI-1640, 5% fetal bovine serum, and 2 mM glutamine in a humidified incubator maintained at 37° C. with 5% CO2. Cells were assessed with a Vi-CELL Cell Viability Analyzer (Beckman Coulter; Brea, CA); viability of at least 90% was required for screening. A Multidropä Combi Reagent Dispenser (Thermo Scientific; Waltham, MA) was used to plate cells into Falcons^â 384-well, black, clear-bottom plates (Catalog No. 353962; Corning; Tewksbury, MA) using seeding densities previous determined to achieve approximately 80% confluence at the final time point of the assay. The compounds were prepared at 1000× in advance using an Echo 555 liquid handler (Labcyte; Sunnyvale, CA) and stored in −80° C. until the day of compound addition. On the following day, cells were treated with compounds at final assay concentration 1 uM and 10 uM using a Bravo Automated Liquid-Handling Platform (Agilent; Santa Clara, CA). After 5 days, 25 mL CellTiter-Glo^â reagent was added using a MultiFloä Microplate Dispenser (BioTek; Winooski, VT). Cell lysis was induced by mixing for 30 minutes on an orbital shaker; plates were then incubated at room temperature for 10 minutes to stabilize the luminescent signal. Luminescence was read by a 2104 EnVision^â Multilabel Plate Reader (PerkinElmer; Waltham, MA).
(§2) The data was processed using Genedata Screener^â, Version 15 (Genedata; Basel, Switzerland) to assess compound effects on viability. Compound treated wells were normalized to the median value of 14 DMSO control wells on the same 384 well plate.

[4] = test system: CAL-120; assay: Cell Viability Assay (CellTiter-Glo); settings: 5 days
Procedure: as §1, §2

[5] = test system: HCC366; assay: Cell Viability Assay (CellTiter-Glo); type: cell-based; settings: 10 μM, 5 days
Procedure: as §1, §2

[6] = test system: NCI-H23; assay: Cell Viability Assay (CellTiter-Glo); type: cell-based; settings: 5 days
Procedure: as §1, §2

[7] = test system: PANC-1; assay: Cell Viability Assay (CellTiter-Glo); type: cell-based; settings: 5 days
Procedure: as §1, §2

[8] = test system: ABC-1; assay: Cell Viability Assay (CellTiter-Glo); type: cell-based; settings: 10 μM, 5 days
Procedure: as §1, §2

[9] = test system: NCI-H1650; assay: Cell Viability Assay (CellTiter-Glo); type: cell-based; settings: 10 μM, 5 days
Procedure: (§3) Cell lines were cultured in RPMI-1640, 5% fetal bovine serum, and 2 mM glutamine in a humidified incubator maintained at 37° C. with 5% CO2. Cells were assessed with a Vi-CELL Cell Viability Analyzer (Beckman Coulter; Brea, CA); viability of at least 90% was required for screening. A Multidropä Combi Reagent Dispenser (Thermo Scientific; Waltham, MA) was used to plate cells into Falcons^â 384-well, black, clear-bottom plates (Catalog No. 353962; Corning; Tewksbury, MA) using seeding densities previous determined to achieve approximately 80% confluence at the final time point of the assay. The compounds were prepared at 1000× in advance using an Echo 555 liquid handler (Labcyte; Sunnyvale, CA) and stored in −80° C. until the day of compound addition. On the following day, cells were treated with compounds at final assay concentration 1 uM and 10 uM using a Bravo Automated Liquid-Handling Platform (Agilent; Santa Clara, CA). After 5 days, 25 mL CellTiter-Glo^â reagent was added using a MultiFloä Microplate Dispenser (BioTek; Winooski, VT). Cell lysis was induced by mixing for 30 minutes on an orbital shaker; plates were then incubated at room temperature for 10 minutes to stabilize the luminescent signal. Luminescence was read by a 2104 EnVision^â Multilabel Plate Reader (PerkinElmer; Waltham, MA). […]

[10] = test system: MCF-7; assay: Cell Viability Assay (CellTiter-Glo); type: cell-based; settings: 10 μM, 5 days
Procedure: as §3

[11] = test system: KPL-1; assay: Cell Viability Assay (CellTiter-Glo); type: cell-based; settings: 10 μM, 5 days
Procedure: as §1, §2

[12] = test system: KPL-4; assay: Cell Viability Assay (CellTiter-Glo); type: cell-based; settings: 10 μM, 5 days
Procedure: as §3

[13] = test system: HCC1438; assay: Cell Viability Assay (CellTiter-Glo); type: cell-based; settings: 10 μM, 5 days
Procedure: as §3

[14] = test system: MDA-MB-436; assay: Cell Viability Assay (CellTiter-Glo); type: cell-based; settings: 10 μM, 5 days
Procedure: as §3

[15] = test system: KNS-62; assay: Cell Viability Assay (CellTiter-Glo); type: cell-based; settings: 10 μM, 5 days
Procedure: as §1, §2

T1 sequence (P40337 whole entry): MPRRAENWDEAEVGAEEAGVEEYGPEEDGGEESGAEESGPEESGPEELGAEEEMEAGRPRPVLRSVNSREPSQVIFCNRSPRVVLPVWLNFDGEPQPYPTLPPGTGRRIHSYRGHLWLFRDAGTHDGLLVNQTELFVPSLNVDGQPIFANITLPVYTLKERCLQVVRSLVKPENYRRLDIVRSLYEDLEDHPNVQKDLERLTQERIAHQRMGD

| IC50 [1] [µM] | IC50 [2] [µM] | SMILES | Normalized viability % DMSO ([3]; 10 μM) [% DMSO] | Normalized viability % DMSO [5] [% DMSO] | Normalized viability % DMSO ([7]; 10 μM) [% DMSO] | other results |
| --- | --- | --- | --- | --- | --- | --- |
| 18.2 | 7.47 | CNC(=O)[C@@H]1C[C@@H](O)CN1C(=O)[C@@H](n1cc(CN2CCC(C(=O)OC)CC2)nn1)C(C)(C)C [Compound 1059, methyl 1-[[1-[(1S)-1-[(2S,4R)-4-hydroxy-2-(methylcarbamoyl)pyrrolidine-1-carbonyl]-2,2-dimethyl-propyl]triazol-4-yl]methyl]piperidine-4-carboxylate] | 12.7 | – | – | Normalized viability % DMSO ([4]; 10 μM): 18.1 % DMSO |
| 0.55 | 2.52 | CC(Cc1ccc(Br)cc1F)NC(=O)[C@@H]1C[C@@H](O)CN1C(=O)[C@@H](n1cc(C2CC2)nn1)C(C)(C)C (stereo partly drawn) [Compound 556, (2S,4R)-N-[2-(4-bromo-2-fluoro-phenyl)-1-methyl-ethyl]-1-[(2S)-2-(4-cyclopropyltriazol-1-yl)-3,3-dimethyl-butanoyl]-4-hydroxy-pyrrolidine-2-carboxamide] | 50.4 | – | – | – |
| 3.68 | 5.56 | CCC(CNC(=O)[C@@H]1C[C@@H](O)CN1C(=O)[C@@H](n1cc(C2CC2)nn1)C(C)(C)C)Oc1cccc(C(F)(F)F)c1 (stereo partly drawn) [Compound 493, (2S,4R)-1-[(2S)-2-(4-cyclopropyltriazol-1-yl)-3,3-dimethyl-butanoyl]-4-hydroxy-N-[2-[3-(trifluoromethyl)phenoxy]butyl]pyrrolidine-2-carboxamide] | – | – | 51.8 | – |
| 0.829 | 1.35 | CCC(NC(=O)[C@@H]1C[C@@H](O)CN1C(=O)[C@@H](n1cc(C2CC2)nn1)C(C)(C)C)c1noc(-c2cccc(Br)c2)n1 (stereo partly drawn) [Compound 617, (2S,4R)-N-[1-[5-(3-bromophenyl)-1,2,4-oxadiazol-3-yl]propyl]-1-[(2S)-2-(4-cyclopropyltriazol-1-yl)-3,3-dimethyl-butanoyl]-4-hydroxy-pyrrolidine-2-carboxamide] | – | – | 69.8 | – |
| 0.928 | 1.64 | CC(C)(NC(=O)[C@@H]1C[C@@H](O)CN1C(=O)[C@@H](n1cc(C2CC2)nn1)C(C)(C)C)c1cccc(C#N)c1 [Compound 561, (2S,4R)-N-[1-(3-cyanophenyl)-1-methyl-ethyl]-1-[(2S)-2-(4-cyclopropyltriazol-1-yl)-3,3-dimethyl-butanoyl]-4-hydroxy-pyrrolidine-2-carboxamide] | – | 12.5 | – | – |
| 0.135 | 6.66 | CC(C)(NC(=O)[C@@H]1C[C@@H](O)CN1C(=O)[C@@H](n1cc(C2CC2)nn1)C(C)(C)C)C(=O)Nc1ccccc1 [Compound 480, (2S,4R)-N-(2-anilino-1,1-dimethyl-2-oxo-ethyl)-1-[(2S)-2-(4-cyclopropyltriazol-1-yl)-3,3-dimethyl-butanoyl]-4-hydroxy-pyrrolidine-2-carboxamide] | 5.6 | – | 22.7 | Normalized viability % DMSO [8]: 38.1 % DMSO; Normalized viability % DMSO [9]: 12.6 % DMSO; Normalized viability % DMSO [10]: 13.7 % DMSO; Normalized viability % DMSO ([6]; 1 μM): 37.0 % DMSO; Normalized viability % DMSO ([6]; 10 μM): 8.2 % DMSO; Normalized viability % DMSO [11]: 47.9 % DMSO; Normalized viability % DMSO [12]: 38.4 % DMSO; Normalized viability % DMSO ([3]; 1 μM): 32.4 % DMSO; Normalized viability % DMSO [13]: 11.3 % DMSO; Normalized viability % DMSO ([7]; 1 μM): 38.1 % DMSO; Normalized viability % DMSO [14]: 23.6 % DMSO; Normalized viability % DMSO ([4]; 10 μM): 15.5 % DMSO; Normalized viability % DMSO [15]: 8.7 % DMSO |

Second part, the compound before the results:

| SMILES | IC50 [1] [µM] | IC50 [2] [µM] | Normalized viability % DMSO ([3]; 10 μM) [% DMSO] | Normalized viability % DMSO [5] [% DMSO] | Normalized viability % DMSO ([7]; 10 μM) [% DMSO] | other results |
| --- | --- | --- | --- | --- | --- | --- |
| CC(C)(C)[C@@H](C(=O)N1C[C@H](O)C[C@H]1C(=O)N[C@H]1CC[C@H](c2nc3ccccc3o2)CC1)n1cc(C2CC2)nn1 [Compound 106, (2S,4R)-N-[4-(1,3-benzoxazol-2-yl)cyclohexyl]-1-[(2S)-2-(4-cyclopropyltriazol-1-yl)-3,3-dimethyl-butanoyl]-4-hydroxy-pyrrolidine-2-carboxamide] | 3.37 | 4.41 | – | 6.0 | – | – |
| CNC(=O)[C@@H]1C[C@@H](O)CN1C(=O)[C@@H](n1cc(-c2cccc(C(F)(F)F)c2)nn1)C(C)(C)C [Compound 974, (2S,4R)-1-[(2S)-3,3-dimethyl-2-[4-[3-(trifluoromethyl)phenyl]triazol-1-yl]butanoyl]-4-hydroxy-N-methyl-pyrrolidine-2-carboxamide] | – | – | – | – | – | Normalized viability % DMSO ([3]; 1 μM): 15.3 % DMSO |
| CC(C)(C)[C@@H](C(=O)N1C[C@H](O)C[C@H]1C(=O)NC1CC12CCc1cc(Br)ccc12)n1cc(C2CC2)nn1 (stereo partly drawn) [Compound 266, (2S,4R)-N-(5′-bromospiro[cyclopropane-2,1′-indane]-1-yl)-1-[(2S)-2-(4-cyclopropyltriazol-1-yl)-3,3-dimethyl-butanoyl]-4-hydroxy-pyrrolidine-2-carboxamide] | 3.69 | 9.5 | 31.8 | – | 27.6 | Normalized viability % DMSO ([6]; 10 μM): 37.6 % DMSO; Normalized viability % DMSO ([4]; 10 μM): 46.4 % DMSO |
| CC(C)(C)[C@@H](C(=O)N1C[C@H](O)C[C@H]1C(=O)NC1CN(c2ccncc2)C1)n1cc(C2CC2)nn1 [Compound 445, (2S,4R)-1-[(2S)-2-(4-cyclopropyltriazol-1-yl)-3,3-dimethyl-butanoyl]-4-hydroxy-N-[1-(4-pyridyl)azetidin-3-yl]pyrrolidine-2-carboxamide] | 26.7 | 22.3 | – | 5.2 | – | – |
| CNC(=O)[C@@H]1C[C@@H](O)CN1C(=O)[C@@H](n1cc(CN(C)c2ccccc2)nn1)C(C)(C)C [Compound 842, (2S,4R)-1-[(2S)-3,3-dimethyl-2-[4-[(N-methylanilino)methyl]triazol-1-yl]butanoyl]-4-hydroxy-N-methyl-pyrrolidine-2-carboxamide] | – | – | – | – | – | Normalized viability % DMSO ([4]; 1 μM): 18.5 % DMSO |
| Cc1ccc(N2CCC[C@H]2CNC(=O)[C@@H]2C[C@@H](O)CN2C(=O)[C@@H](n2cc(C3CC3)nn2)C(C)(C)C)cc1 [Compound 462, (2S,4R)-1-[(2S)-2-(4-cyclopropyltriazol-1-yl)-3,3-dimethyl-butanoyl]-4-hydroxy-N-[[(2S)-1-(p-tolyl)pyrrolidin-2-yl]methyl]pyrrolidine-2-carboxamide] | 2.82 | 5.35 | – | 11.3 | – | – |
